# In patent US9340590B2 (priority 2011, dated 2016):
# Like-named read-outs stand apart in the source and are kept apart here. Positions of bridges follow the written chain, without caps; N, C: chain ends. Residues, ends and D or L forms follow the SMILES beside them.
# Columns and labels:
# Test in all cases: cell-based
# hNav1.7 = hNav1.7 (Homo sapiens, UniProt Q15858); format: cell-based
# hNav1.5 = hNav1.5 (Homo sapiens, UniProt Q14524)
# hNav1.3 = hNav1.3 (Homo sapiens, UniProt Q9NY46)
# [1] = IonWorks Quattro, use-dependent block, hNav1.7, read-out: IWQ Use Nav1.7
# [2] = IonWorks Quattro, use-dependent block, hNav1.5, read-out: IWQ Use Nav1.5
# [3] = IonWorks Quattro, use-dependent block, hNav1.3, read-out: IWQ Use Nav1.3
# [4] = IonWorks Quattro, use-dependent protocol, hNav1.5, read-out: IWQ Use Nav1.5
# [5] = IonWorks Quattro, use-dependent protocol, hNav1.3, read-out: IWQ Use Nav1.3
# Sequence of hNav1.7 (Q15858 whole entry, looked up): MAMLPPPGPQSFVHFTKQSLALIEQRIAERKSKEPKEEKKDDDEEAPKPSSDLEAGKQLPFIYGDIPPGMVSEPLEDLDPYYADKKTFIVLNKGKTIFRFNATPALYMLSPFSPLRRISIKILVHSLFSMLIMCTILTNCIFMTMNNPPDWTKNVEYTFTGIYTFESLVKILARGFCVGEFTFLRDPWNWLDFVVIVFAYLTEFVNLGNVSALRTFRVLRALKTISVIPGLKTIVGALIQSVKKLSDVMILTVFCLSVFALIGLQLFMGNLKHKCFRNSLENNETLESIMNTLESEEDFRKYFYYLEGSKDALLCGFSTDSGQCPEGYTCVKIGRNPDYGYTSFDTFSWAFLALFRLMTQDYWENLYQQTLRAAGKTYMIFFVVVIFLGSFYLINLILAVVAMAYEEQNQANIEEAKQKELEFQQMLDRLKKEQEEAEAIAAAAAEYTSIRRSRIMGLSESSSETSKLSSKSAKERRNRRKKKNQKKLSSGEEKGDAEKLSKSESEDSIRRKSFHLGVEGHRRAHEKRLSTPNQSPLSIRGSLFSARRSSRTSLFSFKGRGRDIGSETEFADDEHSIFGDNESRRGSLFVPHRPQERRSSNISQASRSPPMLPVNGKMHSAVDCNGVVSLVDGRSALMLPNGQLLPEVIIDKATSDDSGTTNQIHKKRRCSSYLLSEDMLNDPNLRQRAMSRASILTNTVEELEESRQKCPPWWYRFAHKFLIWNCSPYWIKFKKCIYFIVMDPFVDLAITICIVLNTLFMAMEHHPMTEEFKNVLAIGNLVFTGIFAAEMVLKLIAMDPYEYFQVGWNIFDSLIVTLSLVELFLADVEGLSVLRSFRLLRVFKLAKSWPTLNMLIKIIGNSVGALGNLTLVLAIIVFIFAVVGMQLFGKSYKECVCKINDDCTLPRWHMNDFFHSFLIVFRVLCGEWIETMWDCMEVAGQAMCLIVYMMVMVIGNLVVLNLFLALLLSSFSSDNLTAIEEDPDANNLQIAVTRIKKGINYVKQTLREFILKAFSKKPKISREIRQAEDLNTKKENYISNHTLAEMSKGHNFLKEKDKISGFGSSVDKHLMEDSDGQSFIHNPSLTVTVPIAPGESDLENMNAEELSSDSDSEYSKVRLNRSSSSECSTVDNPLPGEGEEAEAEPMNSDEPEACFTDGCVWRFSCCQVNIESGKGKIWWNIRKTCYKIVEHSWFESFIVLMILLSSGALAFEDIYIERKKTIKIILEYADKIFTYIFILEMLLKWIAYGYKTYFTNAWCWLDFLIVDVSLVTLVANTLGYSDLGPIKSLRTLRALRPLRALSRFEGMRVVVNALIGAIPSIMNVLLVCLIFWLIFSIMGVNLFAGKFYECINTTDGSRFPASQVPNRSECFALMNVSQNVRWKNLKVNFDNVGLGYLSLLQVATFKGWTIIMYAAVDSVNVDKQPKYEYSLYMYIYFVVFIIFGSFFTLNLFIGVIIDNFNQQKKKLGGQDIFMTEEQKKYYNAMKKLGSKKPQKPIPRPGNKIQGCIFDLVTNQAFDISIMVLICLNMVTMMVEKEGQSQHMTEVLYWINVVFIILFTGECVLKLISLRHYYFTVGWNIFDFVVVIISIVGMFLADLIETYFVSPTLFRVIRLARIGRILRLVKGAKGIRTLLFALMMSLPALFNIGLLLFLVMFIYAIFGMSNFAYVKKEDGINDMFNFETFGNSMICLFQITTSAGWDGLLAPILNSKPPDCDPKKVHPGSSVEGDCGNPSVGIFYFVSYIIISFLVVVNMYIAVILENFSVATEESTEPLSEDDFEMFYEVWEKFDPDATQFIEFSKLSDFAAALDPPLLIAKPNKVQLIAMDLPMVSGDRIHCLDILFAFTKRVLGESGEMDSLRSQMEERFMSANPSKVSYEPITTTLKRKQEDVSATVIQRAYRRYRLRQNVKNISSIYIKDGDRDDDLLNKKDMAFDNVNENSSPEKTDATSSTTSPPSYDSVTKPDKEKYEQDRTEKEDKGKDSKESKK
# Sequence of hNav1.5 (Q14524 whole entry, looked up): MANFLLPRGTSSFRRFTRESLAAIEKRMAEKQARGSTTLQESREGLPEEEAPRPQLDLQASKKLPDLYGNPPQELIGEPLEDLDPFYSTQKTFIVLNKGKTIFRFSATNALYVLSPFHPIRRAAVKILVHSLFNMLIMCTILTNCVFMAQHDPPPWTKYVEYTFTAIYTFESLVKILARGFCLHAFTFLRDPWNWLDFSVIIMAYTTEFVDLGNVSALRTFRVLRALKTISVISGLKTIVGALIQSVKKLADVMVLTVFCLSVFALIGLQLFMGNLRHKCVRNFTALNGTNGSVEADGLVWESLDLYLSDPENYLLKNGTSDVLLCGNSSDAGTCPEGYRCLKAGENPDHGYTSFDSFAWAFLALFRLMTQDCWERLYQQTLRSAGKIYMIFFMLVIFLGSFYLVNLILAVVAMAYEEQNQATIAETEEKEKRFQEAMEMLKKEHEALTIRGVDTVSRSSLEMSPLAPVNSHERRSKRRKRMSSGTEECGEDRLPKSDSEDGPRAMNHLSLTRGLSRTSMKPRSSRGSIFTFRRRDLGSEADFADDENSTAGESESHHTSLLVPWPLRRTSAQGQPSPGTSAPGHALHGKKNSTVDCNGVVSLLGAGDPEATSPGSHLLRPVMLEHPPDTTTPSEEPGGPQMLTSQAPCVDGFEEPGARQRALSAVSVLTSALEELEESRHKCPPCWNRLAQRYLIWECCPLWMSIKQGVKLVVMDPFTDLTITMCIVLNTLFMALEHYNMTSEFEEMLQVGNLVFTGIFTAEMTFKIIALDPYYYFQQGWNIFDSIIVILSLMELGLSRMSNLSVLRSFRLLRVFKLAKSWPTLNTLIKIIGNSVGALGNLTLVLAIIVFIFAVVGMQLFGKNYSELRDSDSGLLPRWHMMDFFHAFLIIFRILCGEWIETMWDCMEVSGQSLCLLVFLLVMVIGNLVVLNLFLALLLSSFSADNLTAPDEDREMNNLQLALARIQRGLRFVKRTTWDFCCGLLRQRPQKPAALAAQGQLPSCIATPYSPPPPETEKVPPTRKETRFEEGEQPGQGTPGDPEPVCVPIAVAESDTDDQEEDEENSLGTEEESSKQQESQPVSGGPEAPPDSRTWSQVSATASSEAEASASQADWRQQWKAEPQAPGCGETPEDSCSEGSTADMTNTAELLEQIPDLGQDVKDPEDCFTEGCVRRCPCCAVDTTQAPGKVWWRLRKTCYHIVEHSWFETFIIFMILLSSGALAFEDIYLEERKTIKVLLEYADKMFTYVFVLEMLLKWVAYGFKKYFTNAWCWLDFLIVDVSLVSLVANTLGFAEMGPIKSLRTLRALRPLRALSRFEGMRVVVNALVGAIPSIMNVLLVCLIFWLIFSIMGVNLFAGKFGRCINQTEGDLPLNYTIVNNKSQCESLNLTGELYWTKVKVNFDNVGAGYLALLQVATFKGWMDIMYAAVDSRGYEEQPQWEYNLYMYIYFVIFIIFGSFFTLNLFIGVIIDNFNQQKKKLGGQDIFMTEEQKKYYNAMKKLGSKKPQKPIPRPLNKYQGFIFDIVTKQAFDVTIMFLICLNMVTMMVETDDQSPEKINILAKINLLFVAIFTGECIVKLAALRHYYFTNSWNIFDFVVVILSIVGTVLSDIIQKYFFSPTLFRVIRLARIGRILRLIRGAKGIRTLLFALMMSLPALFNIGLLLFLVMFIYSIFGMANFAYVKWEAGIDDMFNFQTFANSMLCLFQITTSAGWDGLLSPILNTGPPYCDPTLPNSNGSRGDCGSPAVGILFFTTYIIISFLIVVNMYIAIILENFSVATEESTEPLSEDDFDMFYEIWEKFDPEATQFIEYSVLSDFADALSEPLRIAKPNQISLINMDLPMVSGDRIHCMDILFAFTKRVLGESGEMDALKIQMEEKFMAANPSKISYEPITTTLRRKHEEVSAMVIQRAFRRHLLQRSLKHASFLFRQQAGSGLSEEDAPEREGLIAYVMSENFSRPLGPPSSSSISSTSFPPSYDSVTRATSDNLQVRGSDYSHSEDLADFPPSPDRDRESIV
structure (smiles),measurement,setting,value
"CC[C@H](C)[C@@H]1NC(=O)[C@@H]2CSSC[C@@H]3NC(=O)[C@H](C(C)C)NC(=O)[C@H](CC(C)C)NC(=O)[C@H](CC(N)=O)NC(=O)[C@@H]4CCCN4C(=O)[C@H](CCCNC(=N)N)NC(=O)[C@H](CSSC[C@H](NC(=O)[C@@H](N)CC(=O)O)C(=O)N[C@@H](CC(C)C)C(=O)NCC(=O)N[C@@H](C)C(=O)N[C@@H](CC(C)C)C(=O)N[C@@H](CCCNC(=N)N)C(=O)N[C@@H](CCCCN)C(=O)N2)NC(=O)[C@H](CSSC[C@@H](C(=O)N[C@@H](CCCCN)C(=O)N[C@@H](Cc2ccc(O)cc2)C(=O)N[C@H](C(=O)N[C@@H](Cc2ccccc2)C(=O)O)C(C)C)NC(=O)[C@H](Cc2c[nH]c4ccccc24)NC(=O)[C@H](CCCNC(=N)N)NC(=O)[C@H](Cc2c[nH]cn2)NC(=O)[C@H]([C@@H](C)O)NC(=O)[C@H](CCCNC(=N)N)NC(=O)[C@H](CO)NC3=O)NC(=O)[C@H](CCCCN)NC(=O)[C@H](CC(=O)O)NC(=O)[C@H](Cc2ccccc2)NC(=O)[C@H](CC(=O)O)NC(=O)[C@@H]2CCCN2C1=O [compound 863] (H-DCLGALRKCIPDFDKCCRPNLVCSRTHRWCKYVF-OH; disulfide 2-17, 9-23, 16-30)",IC50,hNav1.7; [1],> 5000 nM
same,IC50,hNav1.5; [2],> 5 µM
same,IC50,hNav1.3; [3],> 5000 nM
"CC[C@H](C)[C@@H]1NC(=O)[C@@H]2CSSC[C@@H]3NC(=O)[C@H](C(C)C)NC(=O)[C@H](CC(C)C)NC(=O)[C@H](CC(N)=O)NC(=O)[C@@H]4CCCN4C(=O)[C@H](CCCNC(=N)N)NC(=O)[C@H](CSSC[C@H](NC(=O)[C@@H](N)CC(=O)O)C(=O)N[C@@H](CC(C)C)C(=O)NCC(=O)N[C@@H](Cc4ccccc4)C(=O)N[C@@H](CCSC)C(=O)N[C@@H](CCCNC(=N)N)C(=O)N[C@@H](CCCCN)C(=O)N2)NC(=O)[C@H](CSSC[C@@H](C(=O)N[C@@H](CCCCN)C(=O)N[C@@H](Cc2ccc(O)cc2)C(=O)N[C@H](C(=O)N[C@@H](Cc2ccccc2)C(N)=O)C(C)C)NC(=O)[C@H](Cc2c[nH]c4ccccc24)NC(=O)[C@H](CCCCN)NC(=O)[C@H](Cc2c[nH]cn2)NC(=O)[C@H](C(C)C)NC(=O)[C@H](CCCNC(=N)N)NC(=O)[C@H](CO)NC3=O)NC(=O)[C@H](CCCCN)NC(=O)[C@H](CC(=O)O)NC(=O)[C@H](CC(N)=O)NC(=O)[C@H](CC(=O)O)NC(=O)[C@@H]2CCCN2C1=O [compound 344] (H-DCLGFMRKCIPDNDKCCRPNLVCSRVHKWCKYVF-NH2; disulfide 2-17, 9-23, 16-30)",IC50,"hNav1.7; Table 22, IonWorks Quattro, use, […], read-out: IWQ Use Nav1.7",60 nM
same,IC50,"hNav1.5; Table 22, IonWorks Quattro, use, […], read-out: IWQ Use Nav1.5",8.93 µM
same,IC50,"hNav1.3; Table 22, IonWorks Quattro, use, […], read-out: IWQ Use Nav1.3",40 nM
CCC[C@@H]1NC(=O)CNC(=O)[C@H](CC(C)C)NC(=O)[C@@H](NC(=O)[C@@H](N)CC(=O)O)CSSC[C@@H]2NC(=O)[C@@H]3CSSC[C@@H](C(=O)N[C@@H](CCCCN)C(=O)N[C@@H](Cc4ccc(O)cc4)C(=O)N[C@H](C(=O)N[C@@H](Cc4ccccc4)C(N)=O)C(C)C)NC(=O)[C@H](Cc4c[nH]c5ccccc45)NC(=O)[C@H](CCCCN)NC(=O)[C@H](Cc4cnc[nH]4)NC(=O)[C@H]([C@@H](C)O)NC(=O)[C@H](CCCNC(=N)N)NC(=O)[C@H](CO)NC(=O)[C@H](CSSC[C@H](NC(=O)[C@H](CCCCN)NC(=O)[C@H](CCCNC(=N)N)NC(=O)[C@H](CCSC)NC1=O)C(=O)N[C@@H]([C@@H](C)CC)C(=O)N1CCC[C@H]1C(=O)N[C@@H](CC(=O)O)C(=O)N[C@@H](CC(N)=O)C(=O)N[C@@H](CC(=O)O)C(=O)N[C@@H](CCCCN)C(=O)N3)NC(=O)[C@H](C(C)C)NC(=O)[C@H](CC(C)C)NC(=O)[C@H](CC(N)=O)NC(=O)[C@@H]1CCCN1C(=O)[C@H](CCCNC(=N)N)NC2=O [compound 650],IC50,hNav1.7,200 nM
same,IC50,hNav1.5; [4],> 5 µM
same,IC50,hNav1.3; [5],570 nM
"CC[C@H](C)[C@@H]1NC(=O)[C@@H]2CSSC[C@@H]3NC(=O)[C@H](C(C)C)NC(=O)[C@H](CC(C)C)NC(=O)[C@H](CC(N)=O)NC(=O)[C@@H]4CCCN4C(=O)[C@H](CCCNC(=N)N)NC(=O)[C@H](CSSC[C@H](NC(=O)[C@@H](N)CC(=O)O)C(=O)N[C@@H](CC(C)C)C(=O)NCC(=O)N[C@@H](C)C(=O)N[C@@H](CC(C)C)C(=O)N[C@@H](CCCNC(=N)N)C(=O)N[C@@H](CCCCN)C(=O)N2)NC(=O)[C@H](CSSC[C@@H](C(=O)N[C@@H](CCCCN)C(=O)N[C@@H](Cc2ccc(O)cc2)C(=O)N[C@H](C(=O)N[C@@H](Cc2ccccc2)C(=O)O)C(C)C)NC(=O)[C@H](Cc2c[nH]c4ccccc24)NC(=O)[C@H](CCCCN)NC(=O)[C@H](Cc2c[nH]cn2)NC(=O)[C@H]([C@@H](C)O)NC(=O)[C@H](CCCNC(=N)N)NC(=O)[C@H](CO)NC3=O)NC(=O)[C@H](CCCCN)NC(=O)[C@H](CC(=O)O)NC(=O)[C@H](CC(N)=O)NC(=O)[C@H](CC(=O)O)NC(=O)[C@@H]2CCCN2C1=O [compound 600] (H-DCLGALRKCIPDNDKCCRPNLVCSRTHKWCKYVF-OH; disulfide 2-17, 9-23, 16-30)",IC50,hNav1.7; [1],> 5000 nM
same,IC50,hNav1.5; [2],12.6 µM
same,IC50,hNav1.3; [3],3100 nM
"CC[C@H](C)[C@@H]1NC(=O)[C@@H]2CSSC[C@@H]3NC(=O)[C@H](C(C)C)NC(=O)[C@H](CC(C)C)NC(=O)[C@H](CC(N)=O)NC(=O)[C@@H]4CCCN4C(=O)[C@H](CCCNC(=N)N)NC(=O)[C@H](CSSC[C@H](NC(=O)[C@@H](N)Cc4ccc(O)cc4)C(=O)N[C@@H](CC(C)C)C(=O)NCC(=O)N[C@@H](Cc4ccccc4)C(=O)N[C@@H](CCSC)C(=O)N[C@@H](CCCNC(=N)N)C(=O)N[C@@H](CCCCN)C(=O)N2)NC(=O)[C@H](CSSC[C@@H](C(=O)N[C@@H](CCCCN)C(=O)N[C@@H](Cc2ccc(O)cc2)C(=O)N[C@H](C(=O)N[C@@H](Cc2ccccc2)C(N)=O)C(C)C)NC(=O)[C@H](Cc2c[nH]c4ccccc24)NC(=O)[C@H](CCCCN)NC(=O)[C@H](Cc2c[nH]cn2)NC(=O)[C@H]([C@@H](C)O)NC(=O)[C@H](CCCNC(=N)N)NC(=O)[C@H](CO)NC3=O)NC(=O)[C@H](CCCCN)NC(=O)[C@H](CC(=O)O)NC(=O)[C@H](CC(N)=O)NC(=O)[C@H](CC(=O)O)NC(=O)[C@@H]2CCCN2C1=O [SEQ ID NO: 97] (H-YCLGFMRKCIPDNDKCCRPNLVCSRTHKWCKYVF-NH2; disulfide 2-17, 9-23, 16-30)",IC50,"hNav1.7; IonWorks Quattro, clamped to −110 mV, depolarized to −10 mV, 5 min after compound, n=2, read-out: IWQ Use Nav1.7",160 nM
same,IC50,"hNav1.5; IonWorks Quattro, clamped to −110 mV, depolarized to −10 mV, 5 min after compound, n=2, read-out: IWQ Use Nav1.5",10.6 µM
same,IC50,"hNav1.3; IonWorks Quattro, clamped to −110 mV, depolarized to −10 mV, 5 min after compound, n=2, read-out: IWQ Use Nav1.3",130 nM
"CC[C@H](C)[C@@H]1NC(=O)[C@@H]2CSSC[C@@H]3NC(=O)[C@H](C(C)C)NC(=O)[C@H](CC(C)C)NC(=O)[C@H](CC(N)=O)NC(=O)[C@@H]4CCCN4C(=O)[C@H](CCCNC(=N)N)NC(=O)[C@H](CSSC[C@H](NC(=O)[C@@H](N)CC(=O)O)C(=O)N[C@@H](CC(C)C)C(=O)NCC(=O)N[C@@H](C)C(=O)N[C@@H](Cc4ccccc4)C(=O)N[C@@H](CCCNC(=N)N)C(=O)N[C@@H](CCCCN)C(=O)N2)NC(=O)[C@H](CSSC[C@@H](C(=O)N[C@@H](CCCCN)C(=O)N[C@@H](Cc2ccc(O)cc2)C(=O)N[C@H](C(=O)N[C@@H](Cc2ccccc2)C(N)=O)C(C)C)NC(=O)[C@H](Cc2c[nH]c4ccccc24)NC(=O)[C@H](CCCNC(=N)N)NC(=O)[C@H](Cc2cnc[nH]2)NC(=O)[C@H](CC(C)C)NC(=O)[C@H](CCCNC(=N)N)NC(=O)[C@H](CO)NC3=O)NC(=O)[C@H](CCCCN)NC(=O)[C@H](CC(=O)O)NC(=O)[C@H](CC(N)=O)NC(=O)[C@H](CC(=O)O)NC(=O)[C@@H]2CCCN2C1=O [SEQ ID NO: 262, [Ala5,Phe6,Leu26,Arg28]GpTx-1] (H-DCLGAFRKCIPDNDKCCRPNLVCSRLHRWCKYVF-NH2; disulfide 2-17, 9-23, 16-30)",IC50,hNav1.7,50 nM
same,IC50,hNav1.5; IWQ Use Nav1.5 (μM),5 µM
same,IC50,hNav1.3,40 nM
CC[C@H](C)[C@@H]1NC(=O)[C@@H]2CSSC[C@@H]3NC(=O)[C@H](C(C)C)NC(=O)[C@H](CC(C)C)NC(=O)[C@H](CC(N)=O)NC(=O)[C@@H]4CCCN4C(=O)[C@H](CCCNC(=N)N)NC(=O)[C@H](CSSC[C@H](NC(=O)[C@@H](N)CC(=O)O)C(=O)N[C@@H](CC(C)C)C(=O)NCC(=O)N[C@@H](Cc4ccccc4Cl)C(=O)N[C@@H](CC(C)C)C(=O)N[C@@H](CCCNC(=N)N)C(=O)N[C@@H](CCCCN)C(=O)N2)NC(=O)[C@H](CSSC[C@@H](C(=O)N[C@@H](CCCCN)C(=O)N[C@@H](Cc2ccc(O)cc2)C(=O)N[C@H](C(=O)N[C@@H](Cc2ccccc2)C(N)=O)C(C)C)NC(=O)[C@H](Cc2c[nH]c4ccccc24)NC(=O)[C@H](CCCCN)NC(=O)[C@H](Cc2c[nH]cn2)NC(=O)[C@H]([C@@H](C)O)NC(=O)[C@H](CCCNC(=N)N)NC(=O)[C@H](CO)NC3=O)NC(=O)[C@H](CCCCN)NC(=O)[C@H](CC(=O)O)NC(=O)[C@H](CC(N)=O)NC(=O)[C@H](CC(=O)O)NC(=O)[C@@H]2CCCN2C1=O [compound 675],IC50,"hNav1.7; IonWorks Quattro, use-dependent protocol, hNav1.7, read-out: IWQ Use Nav1.7",66 nM
same,IC50,hNav1.5; [4],> 5 µM
same,IC50,hNav1.3; [5],72 nM
